Assay results taken from PubChem BioAssay AID2005 (Sanford-Burnham Center for Chemical Genomics, 2009).
The source made the active and inactive calls.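 Rule for the calls: active = plate Z score at or below -3, or inhibition of at least 30% at 20 µM; inactive = the rest.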

Experiment: EGFP reporter destabilization counter-screen – F442A EGFP cells, fluorescence, counter-screen for p/CIP destabilizer project, dose response (AID 2005);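 note: cells express EGFP alone from a CMV promoter as a counter screen for p/CIP-EGFP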
Settings: F442A EGFP cells, EGFP fluorescence, 16 h, stronger effect = higher value

In the case of `CCCCC(=O)NC(c1ccccc1Cl)c1ccc2cccnc2c1O` (centres undefined), the inhibition (EGFP decrease, at 10 µM) is reported as 3.1% and the inhibition (at 20 µM) is reported as -6.1% (inactive).

With `O=C(NNS(=O)(=O)c1ccc(F)cc1)C1CCN(S(=O)(=O)c2ccccc2)CC1` the inhibition (EGFP decrease, at 10 µM) was -22.3% and the inhibition (at 20 µM) was -6.1% (inactive).

For `COc1ccc2c(C)cc3nncn3c2c1`, the inhibition (EGFP decrease, at 10 µM) was -2.7% and the inhibition (at 20 µM) was 14.7% (inactive).

With `O=c1cc(O)c2c(=O)n(C3CCCCC3)c3ccccc3c2o1` the inhibition (EGFP decrease, at 10 µM) was 2.1% and the inhibition (at 20 µM) was 4.6% (inactive).

For `CC(=O)Nc1ccc2c(c1)nc(CCNC(=O)c1ccco1)n2C`, the inhibition (EGFP decrease, at 10 µM) was 1.2% and the inhibition (at 20 µM) was 13% (inactive).

In the case of `CCCCC(=O)NNC(=S)NC(=O)CCC`, the inhibition (EGFP decrease, at 10 µM) is reported as 8.3% and the inhibition (at 20 µM) is reported as 15.7% (inactive).

With `COC(=O)c1sc(NC(=O)CSc2nnnn2-c2cccc(OC)c2)nc1C` the inhibition (EGFP decrease, at 10 µM) was 34.2% and the inhibition (at 20 µM) was 13.2% (inactive).

In the case of `C=CCN(c1ccccc1)S(=O)(=O)c1ccc(Cl)c(C(=O)OCC(=O)NCCCN2CCCC2=O)c1`, the inhibition (EGFP decrease, at 10 µM) is reported as 16.8% and the inhibition (at 20 µM) is reported as 14.2% (inactive).

For `COc1ccc([N+](=O)[O-])cc1NC(=O)c1cccs1`, the inhibition (EGFP decrease, at 10 µM) was 18.4% and the inhibition (at 20 µM) was 8.7% (inactive).

For `COc1ccc(OC)c(Nc2ncnc3c2cnn3-c2ccccc2)c1`, the inhibition (EGFP decrease, at 10 µM) was 17.8% and the inhibition (at 20 µM) was 9.9% (inactive).

For `CCCCN(Cc1ccccc1)S(=O)(=O)c1ccc2[nH]c(=O)oc2c1`, the inhibition (EGFP decrease, at 10 µM) was 7.9% and the inhibition (at 20 µM) was 11.8% (inactive).

In the case of `CCOc1ccc(CC(=O)Nc2ccc(S(=O)(=O)Nc3cc(C)on3)cc2)cc1OCC`, the inhibition (EGFP decrease, at 10 µM) is reported as 7.6% and the inhibition (at 20 µM) is reported as 10.1% (inactive).

With `Cc1cc(C(=O)Nc2cccc(C)c2C)n(-c2ccccc2)n1` the inhibition (EGFP decrease, at 10 µM) was -4.4% and the inhibition (at 20 µM) was 5.5% (inactive).

With `Cc1ccc(S(=O)(=O)N/N=C(\c2ccccc2)c2cccnc2)cc1` the inhibition (EGFP decrease, at 10 µM) was 5.5% and the inhibition (at 20 µM) was 21.7% (inactive).

In the case of `Cc1cccc(-c2nnc3n2N=C(c2ccccc2Br)CS3)c1`, the inhibition (EGFP decrease, at 10 µM) is reported as 18.2% and the inhibition (at 20 µM) is reported as 10.8% (inactive).

With `O=C(CN1CCCCC1)N/N=C/c1cccc(Cl)c1` the inhibition (EGFP decrease, at 10 µM) was 13.5% and the inhibition (at 20 µM) was 17.4% (inactive).

In the case of `CC(=O)Nc1ccc(SCC(=O)Nc2ccccc2Oc2ccccc2)cc1`, the inhibition (EGFP decrease, at 10 µM) is reported as 21.8% and the inhibition (at 20 µM) is reported as 14.4% (inactive).

In the case of `CCOCCCNC(=O)c1cc2c(=O)n3cccc(C)c3nc2s1`, the inhibition (EGFP decrease, at 10 µM) is reported as -2.1% and the inhibition (at 20 µM) is reported as 12.9% (inactive).

With `Cc1cccc(C)c1NC(=O)c1ccccc1C(=O)O` the inhibition (EGFP decrease, at 10 µM) was 18.1% and the inhibition (at 20 µM) was 20.4% (inactive).

In the case of `CCc1cc2c(=O)c(-c3cscn3)coc2cc1O`, the inhibition (EGFP decrease, at 10 µM) is reported as -1.7% and the inhibition (at 20 µM) is reported as -28% (inactive).

For `Cc1ccccc1-n1ncc2c1CC(C)(C)CC2NC(=O)CCN1CCCCC1=O` (centres undefined), the inhibition (EGFP decrease, at 10 µM) was -9.2% and the inhibition (at 20 µM) was 12.3% (inactive).

For `CC(C)Cc1ccc(C(C)C(N)=NCCc2ccccc2)cc1` (centres undefined), the inhibition (EGFP decrease, at 10 µM) was -6.4% and the inhibition (at 20 µM) was -4.2% (inactive).

For `COc1ccccc1CNS(=O)(=O)c1cccc(S(=O)(=O)N2CCOCC2)c1`, the inhibition (EGFP decrease, at 10 µM) was 3.3% and the inhibition (at 20 µM) was 4.8% (inactive).

In the case of `CCCNC(=O)c1ccc2c(=O)c(O)c(-c3cccc(Br)c3)[nH]c2c1`, the inhibition (EGFP decrease, at 10 µM) is reported as -14.1% and the inhibition (at 20 µM) is reported as -14.4% (inactive).

For `COc1ccc2[nH]c(=O)c(-c3noc(-c4ccccc4)n3)cc2c1`, the inhibition (EGFP decrease, at 10 µM) was 22.9% and the inhibition (at 20 µM) was 9.8% (inactive).

For `Cc1ccc(CNC(=O)C2CCCCN2S(=O)(=O)c2ccccc2)cc1` (centres undefined), the inhibition (EGFP decrease, at 10 µM) was -17.4% and the inhibition (at 20 µM) was 4.6% (inactive).

With `Cc1nc2sc(C(c3cccc(F)c3)N3CC(C)OC(C)C3)c(O)n2n1` (centres undefined) the inhibition (EGFP decrease, at 10 µM) was 6.2% and the inhibition (at 20 µM) was 30%.

With `CC1CCCCC1NC(=O)CN1C(=O)c2ccccc2S1(=O)=O` (centres undefined) the inhibition (EGFP decrease, at 10 µM) was -11.2% and the inhibition (at 20 µM) was 13.6% (inactive).

For `CC(C)c1csc(CN2CCCC(CNC(=O)c3cccc4ccccc34)C2)n1` (centres undefined), the inhibition (EGFP decrease, at 10 µM) was 15% and the inhibition (at 20 µM) was 4.5% (inactive).

With `O=C(N/N=C/c1cccc(O)c1)c1ccc(COc2cccc3cccnc23)cc1` the inhibition (EGFP decrease, at 10 µM) was 2.4% and the inhibition (at 20 µM) was 7.8% (inactive).

For `O=C(c1ccccc1)N1CCN(C(=O)c2cc3ccccc3o2)CC1`, the inhibition (EGFP decrease, at 10 µM) was 8.7% and the inhibition (at 20 µM) was 17.1% (inactive).

For `Cc1ccc(N2C(=O)N(CC(=O)Nc3ccc(C)cc3C)C(=O)C2C)cc1` (centres undefined), the inhibition (EGFP decrease, at 10 µM) was 28.1% and the inhibition (at 20 µM) was 22% (inactive).

With `COc1cccc(-c2nc(CS(=O)CC(=O)NCc3ccccc3)c(C)o2)c1` (centres undefined) the inhibition (EGFP decrease, at 10 µM) was 19.6% and the inhibition (at 20 µM) was -13.3% (inactive).

For `CC(Nc1cc(N2CCN(S(=O)(=O)N(C)C)CC2)ccc1[N+](=O)[O-])c1ccccc1` (centres undefined), the inhibition (EGFP decrease, at 10 µM) was 7.3% and the inhibition (at 20 µM) was 23.9% (inactive).

In the case of `Cc1cc(C)n(/N=C/c2ccccc2O)c(=O)c1`, the inhibition (EGFP decrease, at 10 µM) is reported as 20.8% and the inhibition (at 20 µM) is reported as 9.9% (inactive).

For `CCOC(=O)N1CCC(NC(=O)C2CCCN(S(=O)(=O)c3cccc4nsnc34)C2)CC1` (centres undefined), the inhibition (EGFP decrease, at 10 µM) was 11% and the inhibition (at 20 µM) was 19% (inactive).

For `COc1ccc(N2CCN(C(=O)CNS(=O)(=O)c3ccc(Br)s3)CC2)cc1`, the inhibition (EGFP decrease, at 10 µM) was 31% and the inhibition (at 20 µM) was 28.5% (inactive).

For `COC(=O)c1ccc(-c2ccc(CNCC(O)c3ccccc3)o2)cc1` (centres undefined), the inhibition (EGFP decrease, at 10 µM) was 8.8% and the inhibition (at 20 µM) was 7.1% (inactive).

With `C/C(N)=C(/C#N)C(=O)CSc1nnnn1-c1ccc(C)cc1C` the inhibition (EGFP decrease, at 10 µM) was 18% and the inhibition (at 20 µM) was 3.2% (inactive).

With `CCN1C(=O)OC2(CCCCC2)C1(C)O` (centres undefined) the inhibition (EGFP decrease, at 10 µM) was -1.9% and the inhibition (at 20 µM) was 9% (inactive).

For `N#C/C(=C\c1cccnc1)C(=O)Nc1ccccc1[N+](=O)[O-]`, the inhibition (EGFP decrease, at 10 µM) was 27.7% and the inhibition (at 20 µM) was 2% (inactive).

In the case of `Cc1noc(C)c1COC(=O)CNC(=O)c1cccc(F)c1`, the inhibition (EGFP decrease, at 10 µM) is reported as 4% and the inhibition (at 20 µM) is reported as -7.3% (inactive).

For `O=C(Cc1ccccc1)NC(=S)Nc1cccc(C(F)(F)F)c1`, the inhibition (EGFP decrease, at 10 µM) was 14.2% and the inhibition (at 20 µM) was 16.8% (inactive).

With `Cc1c(NC(=O)CSc2ncccn2)c(=O)n(-c2ccccc2)n1C` the inhibition (EGFP decrease, at 10 µM) was 15.5% and the inhibition (at 20 µM) was 17.7% (inactive).

For `CC(NC(=O)c1c(F)cccc1Cl)c1ccc(-n2ccnc2)cc1` (centres undefined), the inhibition (EGFP decrease, at 10 µM) was 35.7% and the inhibition (at 20 µM) was 24.4% (inactive).

With `O[C@@H](CNC[C@H](O)c1ccccc1)c1ccccc1` the inhibition (EGFP decrease, at 10 µM) was 28% and the inhibition (at 20 µM) was -10.9% (inactive).

For `O=C(Nc1ccc(N2CCOCC2)c(Cl)c1)c1ccc(-n2cnnc2)cc1`, the inhibition (EGFP decrease, at 10 µM) was 15.2% and the inhibition (at 20 µM) was 4.8% (inactive).

In the case of `COc1ccc(NC(=O)N2CCn3c2nc2ccccc23)cc1`, the inhibition (EGFP decrease, at 10 µM) is reported as 17.9% and the inhibition (at 20 µM) is reported as 30.9%.

In the case of `COC(=O)c1[nH]c2c(c1C)C(=O)CC(c1cccs1)C2` (centres undefined), the inhibition (EGFP decrease, at 10 µM) is reported as 16.8% and the inhibition (at 20 µM) is reported as -4.5% (inactive).

In the case of `CN1CCn2c1nc(N1CCCCC1)nc2=O`, the inhibition (EGFP decrease, at 10 µM) is reported as 14.7% and the inhibition (at 20 µM) is reported as 16.5% (inactive).

For `CCOC(=O)CSc1nc2ccccc2c(=O)n1CCCCCC(=O)NCc1ccco1`, the inhibition (EGFP decrease, at 10 µM) was 8.4% and the inhibition (at 20 µM) was 5.8% (inactive).

For `CC(=O)c1c(N2CCN(Cc3ccc4c(c3)OCO4)CC2)nc(=S)n(-c2ccccc2)c1C`, the inhibition (EGFP decrease, at 10 µM) was 7.3% and the inhibition (at 20 µM) was 23.7% (inactive).

With `Cc1ccc(NC(=O)N2CCCC2C(=O)NCc2ccc3c(c2)OCO3)cc1` (centres undefined) the inhibition (EGFP decrease, at 10 µM) was -10.4% and the inhibition (at 20 µM) was -0.3% (inactive).

For `COc1ccc(S(=O)(=O)N2c3ccccc3OCC2c2ccccc2)cc1` (centres undefined), the inhibition (EGFP decrease, at 10 µM) was -12.8% and the inhibition (at 20 µM) was 1.8% (inactive).

For `COc1ccc(/C=C/C(=O)Nc2cccc(N3CCOCC3)c2)cc1OC`, the inhibition (EGFP decrease, at 10 µM) was -4.5% and the inhibition (at 20 µM) was 6.7% (inactive).

In the case of `Cn1nnnc1SCC(=O)c1cccs1`, the inhibition (EGFP decrease, at 10 µM) is reported as 11.4% and the inhibition (at 20 µM) is reported as 9.9% (inactive).

With `COc1ccccc1N1CCN(C(=O)C(CC(C)C)NC(=O)C2CCCCC2)CC1` (centres undefined) the inhibition (EGFP decrease, at 10 µM) was -31.4% and the inhibition (at 20 µM) was 6% (inactive).
